Organism: Rattus norvegicus
Experiment: Open TG-GATES - Regimen: Single
Format: toxicity, organism-based, Sprague-Dawley
Parameters: regimen Single, gender Male, age 6 weeks
Conditions: in vivo, po, 30 mg/kg, route gavage, dose level Low; for APTT / Bas / Eos / Fbg / Hb / Ht / Lym / MCH / MCHC / MCV / Mono / Neu / PT / Plat / RBC / Ret / WBC: tissue Blood; for KIDNEY_L / KIDNEY_R / KIDNEY_TOTAL: tissue Kidney; for LIVER: tissue Liver; for A/G / ALP / ALT / AST / BUN / CRE / Ca / Cl / DBIL / GLC / IP / K / LDH / Na / PL / RALB / TBIL / TC / TG / TP / gamma-GTP: tissue Plasma

SMILES: CCCNC(=O)NS(=O)(=O)c1ccc(Cl)cc1 [CHLORPROPAMIDE]
- TERMINAL_BW (3 h): 200 g
- APTT (3 h): 16.8 s
- Bas (3 h): 0.4%
- Eos (3 h): 0.8%
- Fbg (3 h): 301.8 mg/dL
- Hb (3 h): 13.1 g/dL
- Ht (3 h): 40%
- Lym (3 h): 76.8%
- MCH (3 h): 20.9 pg
- MCHC (3 h): 32.7%
- MCV (3 h): 64 fL
- Mono (3 h): 3.6%
- Neu (3 h): 17.8%
- PT (3 h): 15.6 s
- Plat (3 h): 122.9 x10_4/uL
- RBC (3 h): 625.4 x10_4/ul
- Ret (3 h): 9.8%
- WBC (3 h): 80.3 x10_2/uL
- KIDNEY_L (3 h): 0.9 g
- KIDNEY_R (3 h): 0.9 g
- KIDNEY_TOTAL (3 h): 1.8 g
- LIVER (3 h): 8.7 g
- A/G (3 h): 0.9
- ALP (3 h): 1308.8 IU/L
- ALT (3 h): 44 IU/L
- AST (3 h): 74.4 IU/L
- BUN (3 h): 10.6 mg/dL
- CRE (3 h): 0.2 mg/dL
- Ca (3 h): 10.8 mg/dL
- Cl (3 h): 106.2 meq/L
- DBIL (3 h): 0.008 mg/dL
- GLC (3 h): 154.4 mg/dL
- IP (3 h): 9.5 mg/dL
- K (3 h): 4 meq/L
- LDH (3 h): 83.6 IU/L
- Na (3 h): 143 meq/L
- PL (3 h): 131.4 mg/dL
- RALB (3 h): 2.5 g/dL
- TBIL (3 h): 0.038 mg/dL
- TC (3 h): 74.2 mg/dL
- TG (3 h): 47.2 mg/dL
- TP (3 h): 5.4 g/dL
- gamma-GTP (3 h): 1.2 IU/L
- TERMINAL_BW (6 h): 197.5 g
- APTT (6 h): 17.5 s
- Bas (6 h): 0.2%
- Eos (6 h): 1%
- Fbg (6 h): 277.8 mg/dL
- Hb (6 h): 13.3 g/dL
- Ht (6 h): 40.8%
- Lym (6 h): 74.4%
- MCH (6 h): 21 pg
- MCHC (6 h): 32.7%
- MCV (6 h): 64.3 fL
- Mono (6 h): 2.8%
- Neu (6 h): 20.4%
- PT (6 h): 15.4 s
- Plat (6 h): 114.9 x10_4/uL
- RBC (6 h): 633.4 x10_4/ul
- Ret (6 h): 9.6%
- WBC (6 h): 80.6 x10_2/uL
- KIDNEY_L (6 h): 0.9 g
- KIDNEY_R (6 h): 0.9 g
- KIDNEY_TOTAL (6 h): 1.8 g
- LIVER (6 h): 8.1 g
- A/G (6 h): 0.9
- ALP (6 h): 1395.6 IU/L
- ALT (6 h): 41 IU/L
- AST (6 h): 75.4 IU/L
- BUN (6 h): 9 mg/dL
- CRE (6 h): 0.2 mg/dL
- Ca (6 h): 10.5 mg/dL
- Cl (6 h): 106.8 meq/L
- DBIL (6 h): 0.004 mg/dL
- GLC (6 h): 150.8 mg/dL
- IP (6 h): 9.4 mg/dL
- K (6 h): 4.2 meq/L
- LDH (6 h): 72.6 IU/L
- Na (6 h): 143 meq/L
- PL (6 h): 123.6 mg/dL
- RALB (6 h): 2.5 g/dL
- TBIL (6 h): 0.036 mg/dL
- TC (6 h): 74.2 mg/dL
- TG (6 h): 35.4 mg/dL
- TP (6 h): 5.2 g/dL
- gamma-GTP (6 h): 1 IU/L
- TERMINAL_BW (9 h): 194.6 g
- APTT (9 h): 16.9 s
- Bas (9 h): 0%
- Eos (9 h): 1.2%
- Fbg (9 h): 296 mg/dL
- Hb (9 h): 13.2 g/dL
- Ht (9 h): 40.5%
- Lym (9 h): 77.4%
- MCH (9 h): 21.4 pg
- MCHC (9 h): 32.6%
- MCV (9 h): 65.5 fL
- Mono (9 h): 3.2%
- Neu (9 h): 17.2%
- PT (9 h): 15.4 s
- Plat (9 h): 118 x10_4/uL
- RBC (9 h): 618.6 x10_4/ul
- Ret (9 h): 9.1%
- WBC (9 h): 84.5 x10_2/uL
- KIDNEY_L (9 h): 0.9 g
- KIDNEY_R (9 h): 0.9 g
- KIDNEY_TOTAL (9 h): 1.7 g
- LIVER (9 h): 7.7 g
- A/G (9 h): 0.9
- ALP (9 h): 1280.4 IU/L
- ALT (9 h): 38 IU/L
- AST (9 h): 70.8 IU/L
- BUN (9 h): 9.8 mg/dL
- CRE (9 h): 0.2 mg/dL
- Ca (9 h): 10.6 mg/dL
- Cl (9 h): 107.8 meq/L
- DBIL (9 h): 0.002 mg/dL
- GLC (9 h): 158.4 mg/dL
- IP (9 h): 9.8 mg/dL
- K (9 h): 4.1 meq/L
- LDH (9 h): 62.2 IU/L
- Na (9 h): 143.4 meq/L
- PL (9 h): 134 mg/dL
- RALB (9 h): 2.5 g/dL
- TBIL (9 h): 0.032 mg/dL
- TC (9 h): 81.4 mg/dL
- TG (9 h): 43.4 mg/dL
- TP (9 h): 5.4 g/dL
- gamma-GTP (9 h): 1 IU/L
- TERMINAL_BW (24 h): 210.7 g
- APTT (24 h): 26 s
- Bas (24 h): 0%
- Eos (24 h): 1%
- Fbg (24 h): 290 mg/dL
- Hb (24 h): 13 g/dL
- Ht (24 h): 40.1%
- Lym (24 h): 79.2%
- MCH (24 h): 21.4 pg
- MCHC (24 h): 32.4%
- MCV (24 h): 65.9 fL
- Mono (24 h): 3%
- Neu (24 h): 15.2%
- PT (24 h): 15.6 s
- Plat (24 h): 120.5 x10_4/uL
- RBC (24 h): 608.2 x10_4/ul
- Ret (24 h): 8.4%
- WBC (24 h): 96.6 x10_2/uL
- KIDNEY_L (24 h): 0.9 g
- KIDNEY_R (24 h): 0.9 g
- KIDNEY_TOTAL (24 h): 1.9 g
- LIVER (24 h): 9.6 g
- A/G (24 h): 0.9
- ALP (24 h): 1710 IU/L
- ALT (24 h): 47.6 IU/L
- AST (24 h): 73 IU/L
- BUN (24 h): 15 mg/dL
- CRE (24 h): 0.2 mg/dL
- Ca (24 h): 10.8 mg/dL
- Cl (24 h): 105.4 meq/L
- DBIL (24 h): 0.01 mg/dL
- GLC (24 h): 192.8 mg/dL
- IP (24 h): 8.4 mg/dL
- K (24 h): 4.1 meq/L
- LDH (24 h): 78.4 IU/L
- Na (24 h): 142.4 meq/L
- PL (24 h): 150.2 mg/dL
- RALB (24 h): 2.6 g/dL
- TBIL (24 h): 0.034 mg/dL
- TC (24 h): 84 mg/dL
- TG (24 h): 73.8 mg/dL
- TP (24 h): 5.5 g/dL
- gamma-GTP (24 h): 1 IU/L
